# Test results: ChEMBL document CHEMBL4304782, “Antioxidant, Anti-inflammatory, and Neuroprotective Effects of Novel Vinyl Sulfonate Compounds as Nrf2 Activator” (ACS Med Chem Lett, 2019)
# Target: T1, Nuclear factor erythroid 2-related factor 2 (Homo sapiens, UniProt Q16236)
# T1 sequence (Q16236 whole entry): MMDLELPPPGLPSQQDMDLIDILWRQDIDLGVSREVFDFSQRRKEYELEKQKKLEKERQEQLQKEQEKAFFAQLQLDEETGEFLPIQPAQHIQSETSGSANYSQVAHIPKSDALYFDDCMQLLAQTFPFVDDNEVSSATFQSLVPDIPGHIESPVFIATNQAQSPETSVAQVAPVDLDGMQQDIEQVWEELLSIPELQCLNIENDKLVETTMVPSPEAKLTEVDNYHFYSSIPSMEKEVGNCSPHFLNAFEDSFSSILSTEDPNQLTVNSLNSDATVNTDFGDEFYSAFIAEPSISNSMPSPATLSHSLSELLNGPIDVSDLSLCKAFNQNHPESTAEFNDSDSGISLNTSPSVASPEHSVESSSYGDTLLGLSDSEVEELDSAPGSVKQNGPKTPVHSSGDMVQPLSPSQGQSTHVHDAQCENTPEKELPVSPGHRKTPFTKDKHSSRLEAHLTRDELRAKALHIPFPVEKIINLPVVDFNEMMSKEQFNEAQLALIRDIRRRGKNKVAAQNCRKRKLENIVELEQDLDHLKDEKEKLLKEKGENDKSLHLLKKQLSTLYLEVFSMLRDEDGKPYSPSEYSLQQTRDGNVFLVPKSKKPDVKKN
# Experiment: Activation of ED-tagged Nrf2 in human U2OS cells co-expressing Keap1 assessed as induction of NRF2 translocation to nucleus after 6 hrs by beta-galactosidase based chemiluminescent assay
# Assay type: cell-based
row,EC50 [µM],Compound
1,1.48,COc1ccc(OS(=O)(=O)/C=C/c2ccccc2)cc1
2,> 10,O=S(=O)(/C=C/c1ccccc1)Nc1ccccc1
3,1.33,COc1ccccc1OS(=O)(=O)/C=C/c1ccc(Cl)cc1
4,0.165,COc1cccc(OS(=O)(=O)/C=C/c2ccccc2Cl)c1
